Key:
MIO-M1 cells = test: mRNA angiogenesis array (TaqMan Array qPCR) in MIO-M1 cells; assay type: cell-based, human
Procedure: Angiogenesis array. Total RNA was isolated from MIO-MI cells (8 hours) and HUVECs (16 […]
cDNA was prepared with QuantiTect® Reverse Transcription Kit (Qiagen, Cat# 205311). RT-qPCR assay was performed with pre-configured TaqMan Array 96-Well FAST Plate for human angiogenic gene expression (Applied Biosystems, Inc) following the manufacture’s protocol. Each plate contains pre-defined genes including 18S, GAPDH and HPRT1 endogenous controls.
TaqMan Array plates were prepared by loading on each well 5 μl of cDNA sample (30 ng) with nuclease-free water and 5 μl of TaqMan™ Fast Advanced Master Mix (Applied Biosystem, Cat# […]
4444554). The reaction was performed using the QuantStudio™ 3 Flex Real‐Time PCR System as follows: 2 minutes at 50°C (stage 1); 10 minutes at 95°C (stage 2); 15 seconds at 95°C and 1 minutes at 60°C for 40 cycles (stage 3). The data were analyzed by using HPRT1 as endogenous […]
The clustering heatmaps were produced with “pheatmap” library in R with scale = row and clustering method = complete.
HUVEC cells, Euclidean distance was used to quantify the difference in qPCR screening. The Euclidean distance was calculated using “dist” function from R’s default stat library that measures

[1] = test system: STZ-induced diabetic mice; test: Vascular permeability by Evans blue tracer method in STZ mice; assay type: in vivo, mouse; conditions: single intraocular injection 70 ng 32-134D
Procedure: STZ-induced diabetes mouse model. 8-to-10 week-old male mice received an IP injection of STZ at 40 mg/kg of body weight in 0.1M of citrate buffer (pH 4.5) for 5 consecutive days. Normal chow and 10% sucrose water were provided during this period. 10% sucrose was discontinued and replaced with regular water on experimental day 6. […]
Intraocular injections. Intravitreal injections were performed with a PLI-100A Pico-liter Microinjector (Warner Instruments, Harvard Bioscience) using pulled-glass micropipettes. Each micropipette was calibrated to deliver a 1 μl volume on depression of a foot switch. […]
Images were captured with Zeiss fluorescent microscope. Eight fields per eye (2 fields per petal) including area of neovascularization were selected and fluorescence intensity was measured by ImageJ software. […]
The eyes were enucleated and immediately immersed in 4% (wt/vol) paraformaldehyde for 2 hours at room temperature. […] Images were captured by Zeiss fluorescent microscope or confocal microscopy and fluorescence was quantified by the image J software (National Institutes […]
of Health, Bethesda, MD). Blinded quantification of the number of leaking vessels was performed by manual counting of major leakage from capillaries from retinas of each group. […] Random fields were chosen from retinas where leakages were absent to determine baseline fluorescence that arise from capillaries. […]

[2] = MIO-M1, hypoxia+32-134D, 8 hours, Figure 7G

`Brc1ccc2c(-c3csc(-c4c[nH]c5c(Br)cccc45)n3)c[nH]c2c1` [32-134D, 4-(6-bromo-1H-indol-3-yl)-2-(7-bromo-1H-indol-3-yl)thiazole] was tested, and the “reduction in the Euclidean distance between control and hypoxic cell angiogenic gene expression” value (MIO-M1 cells; MIO-M1, from 73 to 31) was 58%, the “mRNA transcripts of angiogenic genes versus cells cultured in hypoxia (in words)” value (MIO-M1 cells; MIO-M1, hypoxia + 32-134D) was “substantially reduced” and the “ANG,RNASE4, angiogenesis array expression (control = 1)” value (MIO-M1 cells; [2]) was 2.068. The “ANGPTL1, angiogenesis array expression (control = 1)” value (MIO-M1 cells; [2]) was 0.8991, the “ANGPTL4, angiogenesis array expression (control = 1)” value (MIO-M1 cells; [2]) was 30.9206 and the “CDH5, angiogenesis array expression (control = 1)” value (MIO-M1 cells; [2]) was 0.6144. For the same compound, the “CEACAM1, angiogenesis array expression (control = 1)” value (MIO-M1 cells; [2]) was 1.055, the “COL15A1, angiogenesis array expression (control = 1)” value (MIO-M1 cells; [2]) was 1.01 and the “CSF3, angiogenesis array expression (control = 1)” value (MIO-M1 cells; [2]) was 0.9339. The “FIGF, angiogenesis array expression (control = 1)” value (MIO-M1 cells; [2]) was 1.127, the “HGF, angiogenesis array expression (control = 1)” value (MIO-M1 cells; [2]) was 0.5689 and the “IL8, angiogenesis array expression (control = 1)” value (MIO-M1 cells; [2]) was 1.45. The “TIMP2, angiogenesis array expression (control = 1)” value (MIO-M1 cells; [2]) was 0.9298, the “TIMP3, angiogenesis array expression (control = 1)” value (MIO-M1 cells; [2]) was 0.7612 and the “TNMD, angiogenesis array expression (control = 1)” value (MIO-M1 cells; [2]) was 0.5729. For the same compound, the “TNNI1, angiogenesis array expression (control = 1)” value (MIO-M1 cells; [2]) was 0.511, the “VEGFA, angiogenesis array expression (control = 1)” value (MIO-M1 cells; [2]) was 8.239 and the “vascular hyperpermeability in STZ mice (in words)” value [1] was “effectively inhibited vascular hyperpermeability”.

Reference: article PMC10313368 (The Journal of Clinical Investigation, 2023)
